Measured values: patent publication US12091425B2 (AMGEN INC., priority 2016, dated 2024)
pIC50: −log10 of the molar value.

Assays:
[1] = system: OPM-2 human multiple myeloma cell line; assay: Cell Viability Assay (OPM-2 10 FBS); type: cell-based; conditions: OPM-2 cells, 16 h, CellTiter-Glo
In short: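 IC50 from 4-parameter logistic fit of CellTiter-Glo luminescence. 3000 cells/well, 10% FBS medium, serial compound dilutions, 16 h, 37 °C/5% CO2; read 25 min post-reagent.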

[2] = molecular target: T1, Mcl-1/Bim interaction, recombinant human Mcl-1 (171-327) (Homo sapiens, UniProt Q07820); assay: Cell free Mcl-1: Bim Affinity Assay (Mcl-1 HTRF); type: binding; conditions: cell free Mcl-1:Bim TR-FRET, recombinant human Mcl-1 (171-327)
T1 construct: made in house
T1 sequence (Q07820 171-327): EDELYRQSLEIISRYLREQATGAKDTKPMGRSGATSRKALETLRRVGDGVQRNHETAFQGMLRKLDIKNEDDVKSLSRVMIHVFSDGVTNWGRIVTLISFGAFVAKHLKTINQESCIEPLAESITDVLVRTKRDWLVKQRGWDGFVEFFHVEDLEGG
In short: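 Read-out is time-resolved FRET after overnight incubation, using a biotin-labelled peptide from human Bim (51-76) as the binding partner; IC50 was derived from competition curves.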

SMILES	pIC50 [1]	pIC50 [2]	pIC50 ([1]; Homo sapiens, OPM-2, 16 h)
COCC[C@H]1C[C@H](C)/C=C/[C@H](O)[C@@H]2CC[C@H]2CN2C[C@@]3(CCCc4cc(Cl)ccc43)COc3ccc(cc32)C(=O)NS1(=O)=O (single isomer, unassigned) [Example 479]	5.09	8.27	–
CC(C)C[C@@H]1C[C@@H](C)/C=C/[C@H](O)[C@@H]2CC[C@H]2CN2C[C@@]3(CCCc4cc(Cl)ccc43)COc3ccc(cc32)C(=O)NS1(=O)=O (single isomer, unassigned) [Example 480]	5.97	9.41	–
CC(C)CC1CC(C)C=CC(O)C2CCC2CN2CC3(CCCc4cc(Cl)ccc43)COc3ccc(cc32)C(=O)NS1(=O)=O (single isomer, unassigned) [Example 482]	–	8.12	5.12
COCC[C@@H]1C[C@@H](C)/C=C/[C@H](OC)[C@@H]2CC[C@H]2CN2C[C@@]3(CCCc4cc(Cl)ccc43)COc3ccc(cc32)C(=O)NS1(=O)=O (single isomer, unassigned) [Example 484]	6.39	9.48	–
COCC[C@@H]1C[C@H](C)/C=C/[C@H](OC)[C@@H]2CC[C@H]2CN2C[C@@]3(CCCc4cc(Cl)ccc43)COc3ccc(cc32)C(=O)NS1(=O)=O (single isomer, unassigned) [Example 485]	6.25	9.33	–
CO[C@H]1/C=C/[C@H](O)[C@@H]2CC[C@H]2CN2C[C@@]3(CCCc4cc(Cl)ccc43)COc3ccc(cc32)C(=O)NS(=O)(=O)[C@H](C)C1 (single isomer, unassigned) [Example 487]	5.24	8.98	–
CO[C@H]1/C=C/[C@H](O)[C@@H]2CC[C@H]2CN2C[C@@]3(CCCc4cc(Cl)ccc43)COc3ccc(cc32)C(=O)NS(=O)(=O)[C@@H](C)C1 (single isomer, unassigned) [Example 488]	4.89	8.28	–
CO[C@@H]1/C=C/[C@H](O)[C@@H]2CC[C@H]2CN2C[C@@]3(CCCc4cc(Cl)ccc43)COc3ccc(cc32)C(=O)NS(=O)(=O)[C@H](C)C1 (single isomer, unassigned) [Example 489]	5.91	9.18	–
CO[C@@H]1/C=C/[C@H](O)[C@@H]2CC[C@H]2CN2C[C@@]3(CCCc4cc(Cl)ccc43)COc3ccc(cc32)C(=O)NS(=O)(=O)[C@@H](C)C1 (single isomer, unassigned) [Example 490]	5.10	8.68	–
C[C@H]1/C=C/[C@H](O)[C@@H]2CC[C@H]2CN2C[C@@]3(CCCc4cc(Cl)ccc43)COc3ccc(cc32)C(=O)NS(=O)(=O)CC1 (single isomer, unassigned) [Example 491]	5.46	9.11	–
C[C@H]1/C=C/[C@@H](O)[C@@H]2CC[C@H]2CN2C[C@@]3(CCCc4cc(Cl)ccc43)COc3ccc(cc32)C(=O)NS(=O)(=O)CC1(C)C (single isomer, unassigned) [Example 494]	5.43	8.06	–
CO[C@H](C)C[C@H]1CC/C=C/[C@H](O)[C@@H]2CC[C@H]2CN2C[C@@]3(CCCc4cc(Cl)ccc43)COc3ccc(cc32)C(=O)NS1(=O)=O (single isomer, unassigned) [Example 508]	5.61	8.22	–
CO[C@H](C)C[C@H]1CC/C=C/[C@H](O)[C@@H]2CC[C@H]2CN2C[C@@]3(CCCc4cc(Cl)ccc43)COc3ccc(cc32)C(=O)NS1(=O)=O (single isomer, unassigned) [Example 514]	6.78	9.41	–
C[C@@H]1[C@@H](C)C/C=C/[C@H](OC[C@@H](C)O)[C@@H]2CC[C@H]2CN2C[C@@]3(CCCc4cc(Cl)ccc43)COc3ccc(cc32)C(=O)NS1(=O)=O (single isomer, unassigned) [Example 527]	7.19	9.66	–
C[C@@H]1[C@@H](C)C/C=C/[C@H](OC[C@@H](C)O)[C@@H]2CC[C@H]2CN2C[C@@]3(CCCc4cc(Cl)ccc43)COc3ccc(cc32)C(=O)NS1(=O)=O (single isomer, unassigned) [Example 528]	7.16	9.60	–
CO[C@H](C)CC1[C@@H](C)C/C=C/[C@H](O)[C@@H]2CC[C@H]2CN2C[C@@]3(CCCc4cc(Cl)ccc43)COc3ccc(cc32)C(=O)NS1(=O)=O (single isomer, unassigned) [Example 529]	6.12	9.01	–
CO[C@H](C)C[C@@H]1[C@@H](C)C/C=C/[C@H](OC)[C@@H]2CC[C@H]2CN2C[C@@]3(CCCc4cc(Cl)ccc43)COc3ccc(cc32)C(=O)NS1(=O)=O (single isomer, unassigned) [Example 535]	–	9.41	6.79
CO[C@H](C)C[C@@H]1[C@@H](C)C/C=C/[C@H](O)[C@@H]2CC[C@H]2CN2C[C@@]3(CCCc4cc(Cl)ccc43)COc3ccc(cc32)C(=O)NS1(=O)=O (single isomer, unassigned) [Example 540]	7.03	9.63	–

SMILES	pIC50 [1]	pIC50 [2]	pIC50 ([1]; Homo sapiens, OPM-2, 16 h)
CO[C@H]1/C=C\CC[C@@H](C[C@@H](C)O)S(=O)(=O)NC(=O)c2ccc3c(c2)N(C[C@@H]2CC[C@H]21)C[C@@]1(CCCc2cc(Cl)ccc21)CO3 (single isomer, unassigned) [Example 543]	6.16	9.27	–
C[C@@H](O)C[C@@H]1CC/C=C/[C@H](O)[C@@H]2CC[C@H]2CN2C[C@@]3(CCCc4cc(Cl)ccc43)COc3ccc(cc32)C(=O)NS1(=O)=O (single isomer, unassigned) [Example 544]	5.82	9.71	–
C[C@H](O)C[C@@H]1CC/C=C/[C@H](O)[C@@H]2CC[C@H]2CN2C[C@@]3(CCCc4cc(Cl)ccc43)COc3ccc(cc32)C(=O)NS1(=O)=O (single isomer, unassigned) [Example 546]	6.07	9.55	–
C[C@H](O)C[C@@H]1CC/C=C\[C@H](O)[C@@H]2CC[C@H]2CN2C[C@@]3(CCCc4cc(Cl)ccc43)COc3ccc(cc32)C(=O)NS1(=O)=O (single isomer, unassigned) [Example 547]	5.65	9.62	–
CO[C@H]1/C=C/CC[C@@H](C[C@@H](C)O)S(=O)(=O)NC(=O)c2ccc3c(c2)N(C[C@@H]2CC[C@H]21)C[C@@]1(CCCc2cc(Cl)ccc21)CO3 (single isomer, unassigned) [Example 548]	6.32	9.56	–
CO[C@H](C)C[C@@H]1CC/C=C/[C@H](OC)[C@@H]2CC[C@H]2CN2C[C@@]3(CCCc4cc(Cl)ccc43)COc3ccc(cc32)C(=O)NS1(=O)=O (single isomer, unassigned) [Example 549]	6.55	9.26	–
C[C@@H](O)C[C@@H]1CC/C=C\[C@H](O)[C@@H]2CC[C@H]2CN2C[C@@]3(CCCc4cc(Cl)ccc43)COc3ccc(cc32)C(=O)NS1(=O)=O (single isomer, unassigned) [Example 550]	–	9.24	5.14
COC(C)CC1CCC=CC(OC)C2CCC2CN2CC3(CCCc4cc(Cl)ccc43)COc3ccc(cc32)C(=O)NS1(=O)=O (single isomer, unassigned) [Example 552]	–	9.32	5.60
C[C@@H]1[C@@H](C)C/C=C/C[C@H](O)[C@@H]2CC[C@H]2CN2C[C@@]3(CCCc4cc(Cl)ccc43)COc3ccc(cc32)C(=O)NS1(=O)=O (single isomer, unassigned) [Example 555]	5.58	8.32	–
C[C@@H]1[C@@H](C)CCCC[C@H](O)[C@@H]2CC[C@H]2CN2C[C@@]3(CCCc4cc(Cl)ccc43)COc3ccc(cc32)C(=O)NS1(=O)=O (single isomer, unassigned) [Example 556]	6.11	8.78	–
C[C@H]1C/C=C/C[C@H](O)[C@@H]2CC[C@H]2CN2C[C@@]3(CCCc4cc(Cl)ccc43)COc3ccc(cc32)C(=O)NS(=O)(=O)[C@H]1C (single isomer, unassigned) [Example 557]	5.98	8.97	–
CC(C)(O)CC1CCC=CC(O)C2CCC2CN2CC3(CCCc4cc(Cl)ccc43)COc3ccc(cc32)C(=O)NS1(=O)=O (single isomer, unassigned) [Example 558]	–	9.55	6.05
CC(C)(O)C[C@@H]1CC/C=C/[C@H](O)[C@@H]2CC[C@H]2CN2C[C@@]3(CCCc4cc(Cl)ccc43)COc3ccc(cc32)C(=O)NS1(=O)=O (single isomer, unassigned) [Example 559]	5.35	9.22	–
COC(=O)CC[C@]1(C)CC/C=C/[C@H](O)[C@@H]2CC[C@H]2CN2C[C@@]3(CCCc4cc(Cl)ccc43)COc3ccc(cc32)C(=O)NS1(=O)=O (single isomer, unassigned) [Example 561]	5.07	8.45	–
COC(=O)CC[C@]1(C)CC/C=C\[C@H](O)[C@@H]2CC[C@H]2CN2C[C@@]3(CCCc4cc(Cl)ccc43)COc3ccc(cc32)C(=O)NS1(=O)=O (single isomer, unassigned) [Example 562]	6.01	8.95	–
COC(=O)CC[C@@]1(C)CC/C=C\[C@H](O)[C@@H]2CC[C@H]2CN2C[C@@]3(CCCc4cc(Cl)ccc43)COc3ccc(cc32)C(=O)NS1(=O)=O (single isomer, unassigned) [Example 563]	5.35	8.57	–
Cc1nnc(C[C@@H]2CC/C=C/[C@H](O)[C@@H]3CC[C@H]3CN3C[C@@]4(CCCc5cc(Cl)ccc54)COc4ccc(cc43)C(=O)NS2(=O)=O)o1 (single isomer, unassigned) [Example 564]	5.52	9.51	–
Cc1nnc(C[C@H]2CC/C=C/[C@H](O)[C@@H]3CC[C@H]3CN3C[C@@]4(CCCc5cc(Cl)ccc54)COc4ccc(cc43)C(=O)NS2(=O)=O)o1 (single isomer, unassigned) [Example 565]	4.90	9.22	–
